Target: T1, Cholesteryl ester transfer protein (Homo sapiens, UniProt P11597)
T1 sequence (P11597 whole entry): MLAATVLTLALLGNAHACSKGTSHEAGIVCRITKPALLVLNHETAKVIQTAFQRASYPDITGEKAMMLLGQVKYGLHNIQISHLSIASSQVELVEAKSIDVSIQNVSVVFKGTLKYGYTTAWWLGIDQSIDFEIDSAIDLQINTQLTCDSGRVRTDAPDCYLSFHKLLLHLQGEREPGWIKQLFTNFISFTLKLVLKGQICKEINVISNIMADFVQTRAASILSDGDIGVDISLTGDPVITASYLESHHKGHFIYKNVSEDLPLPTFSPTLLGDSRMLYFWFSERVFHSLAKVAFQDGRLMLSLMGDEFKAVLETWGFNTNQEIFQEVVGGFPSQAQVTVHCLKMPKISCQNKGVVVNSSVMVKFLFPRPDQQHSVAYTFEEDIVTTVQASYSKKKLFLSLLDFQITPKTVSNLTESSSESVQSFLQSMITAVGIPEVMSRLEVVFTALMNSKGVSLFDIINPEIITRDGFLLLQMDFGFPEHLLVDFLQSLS
Test: Tested for inhibiting CETP-mediated transfer of [3H]-CE from HDL to LDL in vitro under buffered assay conditions in human serum.
Format: cell-free

IC50 | Compound
> 200 µM | OC(CN(Cc1cccc(C(F)(F)F)c1)c1cccc(F)c1)C(F)(F)F (stereo not drawn)

Target: T1, Cholesteryl ester transfer protein
Test: Inhibition of recombinant human CETP-mediated transfer of [3H]CE from HDL to LDL

Compound | IC50
OC(CN(Cc1ccccc1)c1cccc(F)c1)C(F)(F)F (stereo not drawn) | > 100 µM
OC(CN(Cc1cccc(C(F)(F)F)c1)c1ccccc1)C(F)(F)F (stereo not drawn) | 15 µM
OC(CN(Cc1ccc(OC(F)(F)F)cc1)c1cccc(Oc2ccccc2)c1)C(F)(F)F (stereo not drawn) | 4 µM
OC(CN(Cc1ccccc1C(F)(F)F)c1cccc(F)c1)C(F)(F)F (stereo not drawn) | > 100 µM

Now from value to molecule:

IC50 | Compound
5 µM | COc1cc(N(Cc2cccc(SC(F)(F)F)c2)C[C@@H](O)C(F)(F)F)cc(OC)c1OC
40 µM | OC(CN(Cc1cccc(C(F)(F)F)c1)c1cccc(F)c1)C(F)(F)F (stereo not drawn)
> 100 µM | Cc1cccc(CN(CC(O)C(F)(F)F)c2cccc(F)c2)c1 (stereo not drawn)
